Here are results for one compound from paper PMC6950571 (Marine Drugs, 2019).

Bridge positions count the residues as written; N and C are the ends. Peptide text beside a SMILES is read from it.

The target of the test is T1, rα3β2 nAChRs expressed in Xenopus laevis oocytes (Rattus norvegicus, UniProt P04757+P12390).
T1 construct: expressed in transfected cells; host or cells: Xenopus laevis oocytes, injected with α3 and β2 mRNA; clones from Dr. Steven Heinemann, Salk Institute
Put plainly: cell-based. The following applies: SEM.

As usually defined, the IC50 is the concentration at which inhibition is half-maximal. Low readings indicate greater potency, high ones weaker potency.

T1 sequence (P04757 26-499 limits assumed): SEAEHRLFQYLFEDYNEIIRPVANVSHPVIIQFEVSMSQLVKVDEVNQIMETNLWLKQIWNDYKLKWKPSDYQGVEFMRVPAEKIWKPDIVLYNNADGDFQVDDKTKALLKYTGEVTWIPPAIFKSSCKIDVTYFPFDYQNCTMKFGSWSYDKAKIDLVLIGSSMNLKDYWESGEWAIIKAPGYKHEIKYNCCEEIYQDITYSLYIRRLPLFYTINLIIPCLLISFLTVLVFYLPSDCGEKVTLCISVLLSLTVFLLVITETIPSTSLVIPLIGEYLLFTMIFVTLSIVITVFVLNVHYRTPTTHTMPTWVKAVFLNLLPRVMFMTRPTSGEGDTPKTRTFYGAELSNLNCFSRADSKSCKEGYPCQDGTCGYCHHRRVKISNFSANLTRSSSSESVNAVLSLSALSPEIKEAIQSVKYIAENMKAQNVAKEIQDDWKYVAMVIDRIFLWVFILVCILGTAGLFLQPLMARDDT
T1 sequence (P12390 25-500 limits assumed): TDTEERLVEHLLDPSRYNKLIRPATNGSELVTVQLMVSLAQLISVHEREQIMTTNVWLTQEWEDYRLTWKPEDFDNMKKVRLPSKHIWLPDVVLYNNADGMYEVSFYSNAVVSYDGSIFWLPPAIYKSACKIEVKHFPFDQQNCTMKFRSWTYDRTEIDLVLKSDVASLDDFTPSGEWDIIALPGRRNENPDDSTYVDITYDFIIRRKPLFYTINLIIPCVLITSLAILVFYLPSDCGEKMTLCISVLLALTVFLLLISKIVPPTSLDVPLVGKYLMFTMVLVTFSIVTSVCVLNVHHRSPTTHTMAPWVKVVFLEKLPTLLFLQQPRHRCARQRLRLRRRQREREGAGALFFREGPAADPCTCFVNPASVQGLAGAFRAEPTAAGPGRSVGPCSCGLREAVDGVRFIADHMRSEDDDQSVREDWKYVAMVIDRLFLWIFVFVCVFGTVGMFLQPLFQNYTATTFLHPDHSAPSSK

`NCCCC[C@@H]1NC(=O)[C@H](CO)NC(=O)[C@H](CO)NC(=O)[C@H](CO)NC(=O)[C@H](Cc2c[nH]c3ccccc23)NC(=O)[C@H](Cc2ccc(O)cc2)NC(=O)[C@@H]2CSSC[C@H](NC(=O)[C@@H](NC(=O)[C@@H](N)Cc3c[nH]c4ccccc34)CSSC[C@@H](C(=O)O)NC(=O)[C@H](Cc3c[nH]c4ccccc34)NC1=O)C(=O)N[C@@H](CO)C(=O)N[C@@H](Cc1ccc(O)cc1)C(=O)N1CCC[C@H]1C(=O)NCC(=O)N2` [KTM] (H-WCCSYPGCYWSSSKWC-OH; disulfide 2-16, 3-8) registered an IC50 of 0.19 ± 0.02 nM.
